These are literature values, as cited in US20210393522A1, “COMPOSITIONS FOR SOLUBILIZING WATER-INSOLUBLE ACTIVE INGREDIENTS” (priority 2020, published 2021).

The conditions of series [1]: oil-based delivery systems; humans; Agurell 1981.

Turning to `C=C(C)[C@@H]1CCC(C)=C[C@H]1c1c(O)cc(CCCCC)cc1O` [CBD, cannabidiol], in series [1], the “Share of total CBD absorbed” value is recorded as 4%.

Consider `CC(C)(Sc1cc(C(C)(C)C)c(O)c(C(C)(C)C)c1)Sc1cc(C(C)(C)C)c(O)c(C(C)(C)C)c1` [Probucol, 4,4′-[Propane-2,2-diylbis(thio)]bis(2,6-di-tert-butylphenol)], for which the Solubility in water is reported as 5 nanograms per ml.
